Laboratory results as given in PubChem BioAssay AID328 (DTP/NCI, 2004).
“And” between values parts separate entries of the source, which are not always exact repeats. Equal entries are not always repeated. Inconclusive results and toxic doses are left out.

Tested on: BDF1 mice, P388 leukemia ip, median survival T/C
Assay: NCI In Vivo Anticancer Drug Screen. Data for tumor model P388 Leukemia (intraperitoneal) in B6D2F1 (BDF1) mice
Settings: endpoint: median survival time, higher = longer survival
In short: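 Each value expresses how treatment altered survival: treated-mouse outcome over vehicle-mouse outcome, both groups bearing the transplanted tumour.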

[1] = dose: 100.0 mg/kg/injection, schedule: Q01DX009 (ip), vehicle: saline
[2] = dose: 100.0 mg/kg/injection, schedule: Q04DX003 (ip), vehicle: saline
[3] = dose: 200.0 mg/kg/injection, schedule: Q01DX009 (ip), vehicle: saline
[4] = dose: 200.0 mg/kg/injection, schedule: Q04DX003 (ip), vehicle: saline
[5] = dose: 400.0 mg/kg/injection, schedule: Q01DX009 (ip), vehicle: saline
[6] = dose: 400.0 mg/kg/injection, schedule: Q04DX003 (ip), vehicle: saline
[7] = dose: 25.0 mg/kg/injection, schedule: Q01DX009 (ip), vehicle: saline with Tween-80
[8] = dose: 50.0 mg/kg/injection, schedule: Q01DX009 (ip), vehicle: saline with Tween-80
[9] = dose: 100.0 mg/kg/injection, schedule: Q01DX009 (ip), vehicle: saline with Tween-80
[10] = dose: 25.0 mg/kg/injection, schedule: Q01DX009 (ip), vehicle: water
[11] = dose: 25.0 mg/kg/injection, schedule: Q04DX003 (ip), vehicle: water
[12] = dose: 200.0 mg/kg/injection, schedule: Q01DX009 (ip), vehicle: water
[13] = dose: 400.0 mg/kg/injection, schedule: Q01DX009 (ip), vehicle: water

For CC1=CC(=O)NC1O (centres undefined), the T/C (dose: 2.5 mg/kg/injection, schedule: Q01DX010 (ip), vehicle: saline) was 87 % of control, the T/C (dose: 10.0 mg/kg/injection, schedule: Q01DX010 (ip), vehicle: saline) was 91 % of control and the T/C (dose: 15.0 mg/kg/injection, schedule: Q01DX010 (ip), vehicle: saline) was 100 % of control.

CCOC(=O)CSC(=S)SCC(=O)OCC was tested, and the T/C [1] was 100 % of control, the T/C [2] was 90 % of control and the T/C [3] was 105 % of control. For the same compound, the T/C [4] was 100 % of control, the T/C [5] was 100 % of control and the T/C [6] was 100 % of control.

With O=C(NC(=O)c1c(F)cccc1F)Nc1ccc(Cl)c2ccccc12 the T/C [7] was 91 % of control, the T/C [8] was 100 % of control and the T/C [9] was 90 % of control.

For CC(C)=CCOc1ccc(C(=O)/C=C/c2ccc(O)cc2)c(O)c1, the T/C (dose: 1.25 mg/kg/injection, schedule: Q01DX009 (ip), vehicle: Klucel (hydroxypropylcellulose) (HPC)) was 93 % of control, the T/C (dose: 2.5 mg/kg/injection, schedule: Q01DX009 (ip), vehicle: Klucel (hydroxypropylcellulose) (HPC)) was 115 % of control and the T/C (dose: 5.0 mg/kg/injection, schedule: Q01DX009 (ip), vehicle: Klucel (hydroxypropylcellulose) (HPC)) was 109 % of control. For the same compound, the T/C (dose: 10.0 mg/kg/injection, schedule: Q01DX009 (ip), vehicle: Klucel (hydroxypropylcellulose) (HPC)) was 107 % of control, the T/C (dose: 20.0 mg/kg/injection, schedule: Q01DX009 (ip), vehicle: Klucel (hydroxypropylcellulose) (HPC)) was 97 % of control and the T/C (dose: 40.0 mg/kg/injection, schedule: Q01DX009 (ip), vehicle: Klucel (hydroxypropylcellulose) (HPC)) was 98 % of control.

For O=c1[nH]c2ccccc2c(=O)n1C1CCCCC1, the T/C (dose: 12.5 mg/kg/injection, schedule: Q01DX009 (ip), vehicle: water) was 111 % of control, the T/C (dose: 12.5 mg/kg/injection, schedule: Q04DX003 (ip), vehicle: water) was 96 % of control and the T/C [10] was 111 % of control. The T/C [11] was 100 % of control, the T/C (dose: 50.0 mg/kg/injection, schedule: Q04DX003 (ip), vehicle: water) was 107 % of control and the T/C (dose: 100.0 mg/kg/injection, schedule: Q01DX009 (ip), vehicle: water) was 106 % of control. The T/C (dose: 100.0 mg/kg/injection, schedule: Q04DX003 (ip), vehicle: water) was 105 % of control, the T/C [12] was 101 % of control and the T/C [13] was 101 % of control.

COc1ccc2nc3cc(Cl)ccc3c(NCCNCCNCCNc3c4ccc(Cl)cc4nc4ccc(OC)cc34)c2c1 was tested, and the T/C (dose: 12.5 mg/kg/injection, schedule: Q01DX009 (ip), vehicle: saline with Tween-80) was 151 % of control, the T/C [7] was 171 % of control and the T/C [8] was 161 % of control.

With CNC(=O)c1nc(C)c(C)nc1OCc1ccccc1 the T/C (dose: 12.5 mg/kg/injection, schedule: Q01DX009 (ip), vehicle: saline) was 100 % of control, the T/C (dose: 25.0 mg/kg/injection, schedule: Q01DX009 (ip), vehicle: saline) was 95 % of control and 124 % of control and the T/C (dose: 50.0 mg/kg/injection, schedule: Q01DX009 (ip), vehicle: saline) was 97 % of control and 111 % of control. The T/C (dose: 50.0 mg/kg/injection, schedule: Q04DX003 (ip), vehicle: saline) was 111 % of control, the T/C [1] was 106 % of control and 109 % of control and the T/C [2] was 100 % of control. The T/C [3] was 91 % of control, the T/C [4] was 96 % of control and the T/C (dose: 300.0 mg/kg/injection, schedule: Q01DX009 (ip), vehicle: saline) was 97 % of control. For the same compound, the T/C [5] was 119 % of control and the T/C [6] was 88 % of control.

For O=S(=O)(O)c1ccc(/C2=c3\cc/c([n-]3)=C(\c3ccc(S(=O)(=O)O)cc3)c3ccc([n-]3)/C(c3ccc(S(=O)(=O)O)cc3)=c3/cc/c([n-]3)=C(\c3ccc(S(=O)(=O)O)cc3)c3ccc2[n-]3)cc1.[Zn], the T/C (dose: 62.5 mg/kg/injection, schedule: Q01DX009 (ip), vehicle: saline with Tween-80) was 106 % of control.

With Nc1ccc(SCc2nc3cccc4c3n2CCC4)cc1 the T/C (dose: 100.0 mg/kg/injection, schedule: Q04DX003 (ip), vehicle: saline with Tween-80) was 91 % of control, the T/C (dose: 200.0 mg/kg/injection, schedule: Q04DX003 (ip), vehicle: saline with Tween-80) was 95 % of control and the T/C (dose: 400.0 mg/kg/injection, schedule: Q04DX003 (ip), vehicle: saline with Tween-80) was 95 % of control.

In the case of CCOC(=O)C(C)NC(=O)C(C)NC(=O)OCc1ccccc1 (centres undefined), the T/C (dose: 100.0 mg/kg/injection, schedule: Q01DX009 (ip), vehicle: gum acacia) is reported as 120 % of control, the T/C (dose: 100.0 mg/kg/injection, schedule: Q04DX003 (ip), vehicle: gum acacia) is reported as 95 % of control and the T/C (dose: 200.0 mg/kg/injection, schedule: Q01DX009 (ip), vehicle: gum acacia) is reported as 100 % of control. The T/C (dose: 200.0 mg/kg/injection, schedule: Q04DX003 (ip), vehicle: gum acacia) was 112 % of control, the T/C (dose: 400.0 mg/kg/injection, schedule: Q01DX009 (ip), vehicle: gum acacia) was 95 % of control and the T/C (dose: 400.0 mg/kg/injection, schedule: Q04DX003 (ip), vehicle: gum acacia) was 87 % of control.

For CSC/C(=N\Nc1ccc([N+](=O)[O-])cc1[N+](=O)[O-])c1ccccc1, the T/C (dose: 1.56 mg/kg/injection, schedule: Q01DX001 (ip), vehicle: saline with Tween-80) was 100 % of control, the T/C (dose: 3.13 mg/kg/injection, schedule: Q01DX001 (ip), vehicle: saline with Tween-80) was 104 % of control and the T/C (dose: 6.25 mg/kg/injection, schedule: Q01DX001 (ip), vehicle: saline with Tween-80) was 114 % of control.

CC(=O)N1CCCCCC1=O was tested, and the T/C [8] was 104 % of control, the T/C [9] was 89 % of control and the T/C (dose: 200.0 mg/kg/injection, schedule: Q01DX009 (ip), vehicle: saline with Tween-80) was 104 % of control. For the same compound, the T/C (dose: 400.0 mg/kg/injection, schedule: Q01DX009 (ip), vehicle: saline with Tween-80) was 90 % of control.

For COc1ccc(OC)c(/C=C/C(=O)c2ccc(Cl)cc2)c1, the T/C (dose: 100.0 mg/kg/injection, schedule: Q04DX003 (ip), vehicle: Klucel (hydroxypropylcellulose) (HPC)) was 104 % of control, the T/C (dose: 200.0 mg/kg/injection, schedule: Q04DX003 (ip), vehicle: Klucel (hydroxypropylcellulose) (HPC)) was 95 % of control and the T/C (dose: 400.0 mg/kg/injection, schedule: Q04DX003 (ip), vehicle: Klucel (hydroxypropylcellulose) (HPC)) was 104 % of control.

For NC(N)=NCCNC(=O)C1CCC(N)C1 (centres undefined), the T/C (dose: 0.08 mg/kg/injection, schedule: Q01DX009 (ip), vehicle: saline) was 97 % of control, the T/C (dose: 0.16 mg/kg/injection, schedule: Q01DX009 (ip), vehicle: saline) was 97 % of control and the T/C (dose: 0.32 mg/kg/injection, schedule: Q01DX009 (ip), vehicle: saline) was 99 % of control. The T/C (dose: 0.63 mg/kg/injection, schedule: Q01DX009 (ip), vehicle: saline) was 100 % of control.

Cc1ccc(NC(=O)N(CCCl)N=O)cc1C was tested, and the T/C (dose: 6.6 mg/kg/injection, schedule: Q04DX003 (ip), vehicle: saline with Tween-80) was 159 % of control, the T/C (dose: 10.0 mg/kg/injection, schedule: Q04DX003 (ip), vehicle: saline with Tween-80) was 209 % of control and the T/C (dose: 15.0 mg/kg/injection, schedule: Q04DX003 (ip), vehicle: saline with Tween-80) was 204 % of control.

For COc1ccc(CN(CCOC(=O)c2ccc(OC)cc2)CCN(CCOC(=O)c2ccc(OC)cc2)Cc2ccc(OC)cc2)cc1, the T/C (dose: 25.0 mg/kg/injection, schedule: Q01DX009 (ip), vehicle: other) was 89 % of control, the T/C [10] was 93 % of control and the T/C [11] was 95 % of control and 100 % of control. For the same compound, the T/C (dose: 50.0 mg/kg/injection, schedule: Q01DX009 (ip), vehicle: other) was 91 % of control, the T/C (dose: 50.0 mg/kg/injection, schedule: Q01DX009 (ip), vehicle: water) was 101 % of control and the T/C (dose: 100.0 mg/kg/injection, schedule: Q01DX009 (ip), vehicle: other) was 86 % of control. The T/C (dose: 200.0 mg/kg/injection, schedule: Q01DX009 (ip), vehicle: other) was 94 % of control, the T/C [12] was 110 % of control and the T/C (dose: 300.0 mg/kg/injection, schedule: Q04DX003 (ip), vehicle: water) was 107 % of control. For the same compound, the T/C [13] was 95 % of control.

In the case of C/C(=N\NC(=S)N1CCC(O)CC1)c1ccccn1, the T/C (dose: 6.25 mg/kg/injection, schedule: Q04DX003 (ip), vehicle: saline with Tween-80) is reported as 104 % of control, the T/C (dose: 12.5 mg/kg/injection, schedule: Q04DX003 (ip), vehicle: saline with Tween-80) is reported as 108 % of control and the T/C (dose: 25.0 mg/kg/injection, schedule: Q04DX003 (ip), vehicle: saline with Tween-80) is reported as 113 % of control.

In the case of CCC1SC(=S)N(c2ccc(S(N)(=O)=O)cc2)C1=O (centres undefined), the T/C (dose: 33.75 mg/kg/injection, schedule: Q01DX009 (ip), vehicle: saline with Tween-80) is reported as 96 % of control, the T/C (dose: 67.5 mg/kg/injection, schedule: Q01DX009 (ip), vehicle: saline with Tween-80) is reported as 97 % of control and the T/C (dose: 135.0 mg/kg/injection, schedule: Q01DX009 (ip), vehicle: saline with Tween-80) is reported as 97 % of control.
